Legend:
[1] = biological target: Sodium-dependent noradrenaline transporter (Homo sapiens, UniProt P23975)
Description: Inhibition of [3H]norepinephrine uptake at human NET expressed in HEK293 cells

[2] = biological target: Sodium-dependent dopamine transporter (Homo sapiens, UniProt Q01959)
Description: Inhibition of [3H]dopamine uptake at human DAT expressed in HEK293 cells

Plasmodium falciparum [3] = assay: microbe, parasite or virus in culture; details: Dd2, 72 h
Plasmodium falciparum [4] = assay: microbe, parasite or virus in culture; details: D6, 72 h
cells = details: Mus musculus, C57BL/6J, Splenocyte, 72 h
Description: Cytotoxicity against C57BL/6J mouse splenocytes after 72 hrs by alamar blue assay

[5] = biological target: Sodium-dependent serotonin transporter (Homo sapiens, UniProt P31645); format: cell-based, HEK293
Sequence of Sodium-dependent serotonin transporter (P31645 whole entry): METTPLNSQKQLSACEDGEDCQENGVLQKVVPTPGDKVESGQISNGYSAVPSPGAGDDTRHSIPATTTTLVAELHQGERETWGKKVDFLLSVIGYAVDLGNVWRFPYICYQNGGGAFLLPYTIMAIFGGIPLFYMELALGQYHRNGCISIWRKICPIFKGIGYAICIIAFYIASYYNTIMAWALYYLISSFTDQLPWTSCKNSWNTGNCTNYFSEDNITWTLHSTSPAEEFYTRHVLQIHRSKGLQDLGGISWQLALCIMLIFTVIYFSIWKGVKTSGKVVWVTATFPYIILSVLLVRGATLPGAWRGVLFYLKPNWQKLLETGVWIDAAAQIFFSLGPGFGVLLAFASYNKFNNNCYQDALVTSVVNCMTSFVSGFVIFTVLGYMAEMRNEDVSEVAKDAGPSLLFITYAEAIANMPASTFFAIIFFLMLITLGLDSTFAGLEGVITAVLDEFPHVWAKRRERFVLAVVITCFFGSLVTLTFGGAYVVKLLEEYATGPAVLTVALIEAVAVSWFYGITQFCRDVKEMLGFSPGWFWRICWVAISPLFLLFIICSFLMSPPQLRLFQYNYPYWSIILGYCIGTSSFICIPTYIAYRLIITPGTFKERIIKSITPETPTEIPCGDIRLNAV
Description: Inhibition of [3H]5HT uptake at human SERT expressed in HEK293 cells

Plasmodium falciparum [6] = assay: Chemosensitizing activity after 72 hrs against chloroquine-resistant Plasmodium falciparum Dd2 infected human erythrocytes as IC50 ratio desethylchloroquine +/- 500 nM by SYBR green assay; format: functional
Plasmodium falciparum [7] = assay: Antimalarial activity after 72 hrs against chloroquine-resistant transporter 106/1'76I mutant Plasmodium falciparum infected in human erythrocytes by SYBR green assay; format: functional, organism-based
Plasmodium falciparum [8] = assay: Chemosensitizing activity after 72 hrs against chloroquine-resistant Plasmodium falciparum Dd2 infected human erythrocytes as IC50 ratio quinine +/- 500 nM by SYBR green assay; format: functional
Plasmodium falciparum [9] = assay: Antimalarial activity after 72 hrs against chloroquine-resistant transporter 106/1'76N mutant Plasmodium falciparum infected human erythrocytes by SYBR green assay; format: functional, organism-based
Plasmodium falciparum [10] = assay: Chemosensitizing activity after 72 hrs against chloroquine-sensitive Plasmodium falciparum D6 infected human erythrocytes as IC50 ratio quinine +/- 500 nM by SYBR green assay; format: functional
Plasmodium falciparum [11] = assay: Chemosensitizing activity after 72 hrs against chloroquine-sensitive Plasmodium falciparum D6 infected human erythrocytes as IC50 ratio desethylchloroquine +/- 500 nM drug by SYBR green assay; format: functional
Histamine H1 receptor = Histamine H1 receptor (Homo sapiens, UniProt P35367); assay: biochemical; format: cell-based, CHO
Sequence of Histamine H1 receptor (P35367 whole entry): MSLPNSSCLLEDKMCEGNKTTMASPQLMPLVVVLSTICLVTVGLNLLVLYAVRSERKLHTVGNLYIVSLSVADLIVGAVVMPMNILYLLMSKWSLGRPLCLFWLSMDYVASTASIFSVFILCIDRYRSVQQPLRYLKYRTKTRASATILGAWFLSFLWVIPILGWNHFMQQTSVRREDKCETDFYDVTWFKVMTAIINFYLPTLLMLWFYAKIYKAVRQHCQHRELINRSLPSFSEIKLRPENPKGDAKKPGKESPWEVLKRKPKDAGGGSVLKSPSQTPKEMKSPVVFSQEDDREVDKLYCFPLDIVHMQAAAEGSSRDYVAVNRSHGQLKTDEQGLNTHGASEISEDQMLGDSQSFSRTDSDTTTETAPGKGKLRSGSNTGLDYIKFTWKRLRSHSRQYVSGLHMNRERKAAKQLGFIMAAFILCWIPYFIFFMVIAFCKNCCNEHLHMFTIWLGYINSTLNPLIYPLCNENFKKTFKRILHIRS
Description: Displacement of [3H]pyrilamine from human histamine receptor subtype 1 expressed in CHO cells

Plasmodium falciparum [12] = assay: Antimalarial activity after 72 hrs against chloroquine-resistant transporter 106/1'76T mutant Plasmodium falciparum infected human erythrocytes by SYBR green assay; format: functional, organism-based

Sequence of Sodium-dependent noradrenaline transporter (P23975 whole entry): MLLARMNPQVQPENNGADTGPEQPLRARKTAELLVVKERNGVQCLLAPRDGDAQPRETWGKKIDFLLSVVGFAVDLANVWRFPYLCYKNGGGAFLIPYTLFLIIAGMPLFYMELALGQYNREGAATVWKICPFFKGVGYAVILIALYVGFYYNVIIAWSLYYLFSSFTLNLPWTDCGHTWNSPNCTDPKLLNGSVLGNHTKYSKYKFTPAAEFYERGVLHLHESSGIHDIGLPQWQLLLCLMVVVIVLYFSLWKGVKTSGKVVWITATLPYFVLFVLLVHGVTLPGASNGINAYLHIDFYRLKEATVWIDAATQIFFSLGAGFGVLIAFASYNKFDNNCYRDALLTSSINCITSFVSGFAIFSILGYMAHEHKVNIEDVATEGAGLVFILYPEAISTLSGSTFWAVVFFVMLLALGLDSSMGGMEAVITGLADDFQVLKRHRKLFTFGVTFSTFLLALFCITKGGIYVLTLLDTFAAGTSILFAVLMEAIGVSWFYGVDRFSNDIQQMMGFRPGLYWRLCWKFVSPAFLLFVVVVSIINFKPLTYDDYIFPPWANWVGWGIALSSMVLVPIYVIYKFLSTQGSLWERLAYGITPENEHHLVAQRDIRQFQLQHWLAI
Sequence of Sodium-dependent dopamine transporter (Q01959 whole entry): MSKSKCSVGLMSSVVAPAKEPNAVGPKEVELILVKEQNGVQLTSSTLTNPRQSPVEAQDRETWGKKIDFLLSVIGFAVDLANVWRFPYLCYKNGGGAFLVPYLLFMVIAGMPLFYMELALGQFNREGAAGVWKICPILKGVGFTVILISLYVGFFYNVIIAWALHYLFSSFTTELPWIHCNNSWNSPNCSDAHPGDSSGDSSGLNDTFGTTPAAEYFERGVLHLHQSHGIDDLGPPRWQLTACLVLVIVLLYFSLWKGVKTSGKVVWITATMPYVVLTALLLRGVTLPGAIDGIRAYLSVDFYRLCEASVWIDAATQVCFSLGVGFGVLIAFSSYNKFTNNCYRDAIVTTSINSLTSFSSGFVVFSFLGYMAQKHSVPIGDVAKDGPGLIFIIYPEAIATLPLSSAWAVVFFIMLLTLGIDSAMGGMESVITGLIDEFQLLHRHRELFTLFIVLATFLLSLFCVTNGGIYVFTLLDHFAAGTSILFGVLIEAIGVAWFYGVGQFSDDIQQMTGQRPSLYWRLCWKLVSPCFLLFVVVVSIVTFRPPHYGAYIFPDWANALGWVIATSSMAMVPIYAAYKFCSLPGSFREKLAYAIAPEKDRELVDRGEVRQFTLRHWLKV

Row | SMILES | IC50 [1] [µM] | IC50 [2] [µM] | IC50 (Plasmodium falciparum [3]) [µM] | IC50 (Plasmodium falciparum [4]) [µM] | IC50 (cells) [µM] | IC50 [5] [µM] | Ratio IC50 (Plasmodium falciparum [6]) | IC50 (Plasmodium falciparum [7]) [µM] | Ratio IC50 (Plasmodium falciparum [8]) | IC50 (Plasmodium falciparum [9]) [µM] | Ratio IC50 (Plasmodium falciparum [10]) | Ratio IC50 (Plasmodium falciparum [11]) | IC50 (Histamine H1 receptor) [µM] | IC50 (Plasmodium falciparum [12]) [µM]
1 | CCN(CC)CCn1c2ccccc2c(=O)c2ccccc21 | > 10 | > 10 | 7.5 | 11.8 | 28.5 | > 10 |  |  |  |  |  |  |  | 
2 | O=c1c2ccccc2n(CCCCCCCl)c2ccccc12 |  |  | 2.6 | 1.3 | 59.5 |  |  |  |  |  |  |  |  | 
3 | CCN(CC)CCCn1c2ccccc2c(=O)c2ccccc21 | > 10 | > 10 | 1.6 | 8.1 | 22.5 | > 10 |  |  |  |  |  |  |  | 
4 | CCN(CC)CCCCCn1c2ccccc2c(=O)c2ccccc21 | 9.1 | > 10 | 5.8 | 3.7 | 30.5 | 7.8 |  |  |  |  |  |  |  | 
5 | CCN(CC)CCCCCCn1c2ccccc2c(=O)c2ccccc21 | > 10 | > 10 | 2.7 | 3.2 | 26.4 | 3.5 | 1.01 | 3.66 | 1 | 0.596 | 0.3 | 0.17 | 3.6 | 4.5
6 | CCN(CC)CCCCCCCCn1c2ccccc2c(=O)c2ccccc21 |  |  | 1.8 | 2.6 | 17.6 |  |  |  |  |  |  |  |  | 
7 | CCN(CC)CCCCn1c2ccccc2c(=O)c2ccccc21 | > 10 | > 10 | 10.2 | 7.6 | 34.5 | > 10 |  |  |  |  |  |  |  | 
8 | CN(C)CCC(c1ccc(Cl)cc1)c1ccccn1 (centres undefined) [CHLORPHENIRAMINE] |  |  | 3.9 | 61.2 | 33.4 |  |  |  |  |  |  |  |  | 
9 | CCNCCCC(C)Nc1ccnc2cc(Cl)ccc12 (centres undefined) [DESETHYLCHLOROQUINE] |  |  | 0.372 | 0.0182 |  |  |  |  |  |  |  |  |  | 

— ChEMBL document CHEMBL1138538, “Design, synthesis, and evaluation of 10-N-substituted acridones as novel chemosensitizers in Plasmodium falciparum” (Antimicrob Agents Chemother, 2007)
